{"source": "patent US9085559B2", "about": "“Triazine-aryl-bis-indoles and process for preparation thereof” (COUNCIL OF SCIENTIFIC & INDUSTRIAL RESEARCH, priority 2010, dated 2015)", "key": {"PDE-4 [1]": {"tested_on": "PDE-4", "test": "Phosphodiesterase 4 assay ([3H]cAMP SPA), enzyme preparation from rat heart", "assay_type": "biochemical", "conditions": "PDE-4 activity, dose 10 μg/ml", "protocol": "FIG. 2. […] To examine whether IICT-TA67 inhibits PDE-4 activity in vitro, enzyme preparations were incubated in the absence or presence of different concentrations (1-20 μg/ml) of IICT-TA67 and breakdown of cAMP was monitored by β counter.\nTable 1. Measurement of phosphodiesterase (PDE)-4 activity by compounds.\nHeart was excised from anesthetized rat and transfer into normal saline solution. […] The homogenate was centrifuged at 500×g for 5 minute at 4° C. Then sup was taken for further centrifuged at 40,000×g for 30 minute (ultra centrifugation). After centrifugation supernatant was collected for phosphodiesterase assay. Protein concentration was estimated and for each assay, 2.5 μg protein (PDE enzyme preparation) was used.\nPhosphodiesterase 4 assay: Phosphodiesterase 4 assay was conducted with [^3H] cAMP SPA enzyme assay (GE Amersham, UK) using 2.5 μg enzyme preparation for each well. Into each well 60 μl water, 10 μl assay buffer supplied with the kit, 10 μl compound (inhibitor), 10 μl PDE enzyme or homogenizing buffer (blank) and 10 μl radiolabel led cAMP ([^3H]cAMP, GE Amersham, UK) were added. To check activity of the enzyme without inhibitor 10 μl DMSO was added in place of inhibitor to a separate well. The reaction mixtures were incubated for 30 mi at 30° C. The reaction was stopped by adding 50 μl SPA bead supplied with the kit. It was then mixed well and allowed to stand at room temperature for 20 min. Breakdown of cAMP in each tube was monitored by β counter. The reading in each tube was obtained in counts per minute (CPM). The reading of the blank tube (without enzyme) was subtracted from each tube to normalize the counts. The enzyme activity was calculated by considering the CPM reading without any inhibitor (compound) as 100."}, "PDE-4 [2]": {"tested_on": "PDE-4", "test": "Phosphodiesterase 4 assay ([3H]cAMP SPA), enzyme preparation from rat heart", "assay_type": "biochemical", "conditions": "0.1-20 μg/ml, compared with rolipram (FIG. 2)"}, "BALB/c 3T3 cell line": {"tested_on": "BALB/c 3T3 cell line", "test": "Balb/c 3T3 Neutral Red Uptake (NRU) cytotoxicity assay", "assay_type": "cell-based", "conditions": "for toxicity: NRU cytotoxicity test (FIG. 8)", "source_text": "(§1) FIG. 8. IICT-TA67 is not toxic. To evaluate the cytotoxicity of test chemical (IICT-TA67) BALB/c 3T3 cell line was used for Neutral Red Uptake (NRU) cytotoxicity test. The test result has been used to determine IC50 for IICT-TA67 and acute oral toxicity (LD50) in rodent was predicted.\n(§2) Basal cytotoxicity of IICT-TA67 has been performed to measure IC50 and thereafter predict in vivo acute oral LD50 values in rodent by using Halle's Registry of cytotoxicity (RC) prediction model: log (LD50)=0.435×log (IC50)+0.625 (Halle, 1998; Spielmann et al., 1999). Balb/c 3T3 Neutral Red Dye Uptake (NRU) cytotoxicity assay procedure was adopted (Liebsch & Spielmann 1995). In brief 3T3 cell were grown in 96 well microtitre plates and exposed to IICT-TA-67. After 48-hour incubation, the test material was removed and Neutral red (NR) solution was applied to the cells. The cells were incubated again, the excess NR solution was removed and finally NR was eluted from the cells. The NRU was determined by using a microtitre plate reader to measure the optical density at 540 nm of the eluted dye in 96 well plate. A calculation of cell viability expressed as NRU was made for each concentration of the test chemical by using the mean NRU of 6 replicate values per test concentration. The cell viability value was compared with the mean NRU of all vehicle control values and relative cell viability was then expressed as percent of untreated vehicle control. […] Although the percentage of viability is slightly more than 95% at 50 μg/ml of IICT-67, 30 μg/ml (% viability of cells is 98%)"}, "[3]": {"test": "Balb/c 3T3 Neutral Red Uptake (NRU) cytotoxicity assay", "assay_type": "cell-based", "conditions": "mouse", "source_text": "as §1, §2"}}}
{"smiles": "COc1ccc(C(c2[nH]c3ccccc3c2CC(=O)O)c2[nH]c3ccccc3c2CC(=O)O)cc1Oc1nc(NC2CC2)nc(NC2CC2)n1", "note": "[Compound 7, 2,2′-[2,2′-3-(4,6-bis-cyclopropylamino)-1,3,5-triazin-2-yl-oxy-4-methoxy-phenyl]-methylene-bis-(1H-indole-3,3-diyl)-diacetic acid]", "values": [{"measurement": "Inhibition %", "setting": "PDE-4 [1]", "result": 60, "unit": "%"}, {"measurement": "inhibition of PDE4 activity", "setting": "PDE-4 [2]", "result": "inhibited PDE4 activity in a dose dependent manner"}, {"measurement": "% viability of cells", "setting": "BALB/c 3T3 cell line; 30 μg/ml", "result": 98, "unit": "%"}, {"measurement": "percentage of viability", "setting": "BALB/c 3T3 cell line; 50 μg/ml", "result": "more than 95%"}, {"measurement": "toxicity", "setting": "BALB/c 3T3 cell line; listed as IICT-67", "result": "does not seem to be toxic to endothelial cells"}, {"measurement": "toxicity", "setting": "BALB/c 3T3 cell line; listed as IICT-TA67", "result": "not toxic"}, {"measurement": "IC50 at 48 h", "setting": "[3]", "result": 32, "unit": "µg/mL"}]}
